From patent publication US20230048350A1, “BENZOCOUMARIN AMPK ACTIVATOR COMPOUNDS, COMPOSITIONS, METHODS AND USES THEREOF” (SOCIETE DES PRODUITS NESTLE S.A., priority 2019, published 2023)
Entries after “also recorded” stand apart in the source; their conditions may differ.

How the values were obtained:
AMPK β1 WT = test: pACC HTRF assay in AMPKβ1/β2 double knockout U-2 OS cells stably expressing β1 WT; assay type: cell-based, human; conditions: varying concentrations
Excerpt: (§1) AMPKβ1/β2 double knockout U-2 OS Flp-In™ T-Rex™ cell lines were generated by Horizon Discovery (Cambridge, UK). Cells were genotyped and analysed by western blotting to confirm that there was a complete knockout of AMPKβ1/β2. We took these AMPKβ1/β2 double knockout cells, and re-introduced the expression of human β1 wild-type (WT) or a […] Serine 108 to alanine mutation (S108A). This was achieved using the Flp-In™ system (Invitrogen) present in this cell line and stable cells expressing β1 WT or a β1 S108A mutant were generated according to the manufacturers' protocols. Re-expression of the β1 subunit was confirmed by Western blot analysis.
(§2) Cells stably expressing β1 WT or a β1 S108A mutant were treated with varying concentrations of Compound 1 and subjected to the pACC HTRF (Cisbio) assay to determine the level of phosphorylation of the AMPK substrate, ACC, in cell lysates.
(§3) AMPKβ1/β2 double knockout cells were used and re-introduced the expression of human β1 WT or β2 WT isoforms. […] Cells stably expressing β1 WT or β2 were treated with varying concentrations of Compound 1 and subjected to the pACC HTRF (Cisbio) assay to determine the level of phosphorylation of the AMPK substrate, ACC, in cell lysates, as in Example 1.

[1] = test system: AMPK β1 S108A mutant (ADaM-binding site mutant); test: pACC HTRF assay in AMPKβ1/β2 double knockout U-2 OS cells stably expressing β1 S108A mutant; assay type: cell-based, human; conditions: varying concentrations
Excerpt: as §1, §2

AMPK = test: pACC HTRF assay in U-2 OS Flp-In T-REx cells; assay type: cell-based; conditions: 30 mins, varying concentrations, HTRF 665 nm/620 nm ratio
Experimental: U-2 OS Flp-In T-REx cells were seeded at 50 K in a 96-well plate and left overnight at 37 C in DMEM GlutaMAX (Thermo Fisher Scientific) supplemented with 10% (vol/vol) FBS and 100 U/ml penicillin G, and 100 μg/ml streptomycin. Cells were treated for 30 mins with varying concentrations of Compound 1 in media lacking FBS and then cells were lysed in 50 μl of Cisbio lysis buffer #1 supplemented with blocking solution as per the manufacturer's protocol (Cisbio). Cells were lysed for 30 mins at room temperature before 16 μl of lysate was incubated with 4 μl of the HTRF antibodies (1:40 dilution of the acceptor and donor (p)ACC antibodies, as per the manufacturers protocol). Lysates were incubated overnight with the antibodies before 665 nm/620 nm ratio was determined using a MolecularDevices i3 plate reader (with a HTRF cartridge add-on).
Phosphorylation of ACC is widely used as a cellular indicator of AMPK activity.

AMPK β2 WT isoform = test: pACC HTRF assay in AMPKβ1/β2 double knockout U-2 OS cells stably expressing β2 WT; assay type: cell-based, human; conditions: varying concentrations
Experimental: as §3
This activation profile is characteristic of activators that bind to the ADaM site and consistent with previous studies showing that ADaM-site activators have poorer activation of β2-containing complexes in vitro and in cells.

For `COc1cc(O)c2c(c1)c(=O)oc1cc(O)ccc12` [Compound 1, 3,10-Dihydroxy-8-methoxy-6H-benzo[c]chromen-6-one], which “phosphorylation of the AMPK substrate, ACC (pACC); AMPK activation” value (shortened to “phosphorylation … AMPK activation”) (AMPK β1 WT) is on record?
The value was “activates AMPK; also recorded: able to dose-dependently increase pACC”.

And the “phosphorylation … AMPK activation” value [1]?
Its value is “does not activate AMPK; also recorded: not able to increase pACC”.

What about the “phosphorylation of the AMPK substrate, ACC (pACC)” value (AMPK) of the same molecule?
Its value is “increases the phosphorylation of the AMPK substrate, ACC, in a dose-dependent manner”.

And the “phosphorylation … AMPK activation” value (AMPK β2 WT isoform)?
The value was “does not activate AMPK; also recorded: not able to increase pACC”.
